One block for each compound: values may come before it.
What was measured:
[1] = Cytotoxicity against human SPCA2 cells after 48 hrs by MTT assay; type: functional, cell-based; settings: SPCA2, 48 h
HepG2 = test: Cytotoxicity against human HepG2 cells after 48 hrs by MTT assay; type: functional, cell-based; settings: HepG2, 48 h
HCT-116 [2] = test: Cytotoxicity against human HCT116 cells after 48 hrs by MTT assay; type: functional, cell-based; settings: HCT-116, 48 h
HUVEC = test: Cytotoxicity against human HUVEC after 48 hrs by MTT assay; type: cell-based
CNE = test: Cytotoxicity against human CNE cells after 48 hrs by MTT assay; type: functional, cell-based
HeLa = test: Cytotoxicity against human HeLa cells after 48 hrs by MTT assay; type: functional, cell-based
HCT-116 [3] = test: Cytotoxicity against human HCT116 cells; type: functional, cell-based
[4] = Cytotoxicity against human COLO320DM cells; type: functional, cell-based; settings: COLO 320DM
DNA = test: Binding affinity to F32T oligonucleotide DNA assessed as change in melting temperature by FRET assay

Structure (SMILES): CCOP(=O)(OCC)C(NC(=O)c1cc(O)c2c(c1)C(=O)c1cccc(O)c1C2=O)c1ccc(C)cc1 (stereo not drawn)
- IC50 [1]: 74.4 µM
- IC50 (HepG2): 77.9 µM
- IC50 (HCT-116 [2]): 54.3 µM
- IC50 (HUVEC): > 100 µM
- IC50 (CNE): 79.4 µM
- IC50 (HeLa): 89 µM

Structure (SMILES): CCOP(=O)(OCC)C(NC(=O)c1cc(O)c2c(c1)C(=O)c1cccc(O)c1C2=O)c1ccc2ccccc2c1 (stereo not drawn)
- IC50 [1]: > 100 µM
- IC50 (HepG2): > 100 µM
- IC50 (HCT-116 [2]): > 100 µM
- IC50 (HUVEC): > 100 µM
- IC50 (CNE): > 100 µM
- IC50 (HeLa): > 100 µM

Structure (SMILES): CCOP(=O)(OCC)C(NC(=O)c1cc(O)c2c(c1)C(=O)c1cccc(O)c1C2=O)c1ccccc1OC (stereo not drawn)
- IC50 [1]: 15 µM
- IC50 (HepG2): 30 µM
- IC50 (HCT-116 [2]): 8.37 µM
- IC50 (HUVEC): > 100 µM
- IC50 (CNE): 28.6 µM
- IC50 (HeLa): 25.6 µM

Structure (SMILES): CCOP(=O)(OCC)C(NC(=O)c1cc(O)c2c(c1)C(=O)c1cccc(O)c1C2=O)c1ccccc1 (stereo not drawn)
- IC50 [1]: 27.4 µM
- IC50 (HepG2): 39.2 µM
- IC50 (HCT-116 [2]): 17.8 µM
- IC50 (HUVEC): > 100 µM
- IC50 (CNE): 34.3 µM
- IC50 (HeLa): 38.2 µM

Structure (SMILES): CCOP(=O)(OCC)C(NC(=O)c1cc(O)c2c(c1)C(=O)c1cccc(O)c1C2=O)c1cccc(F)c1 (stereo not drawn)
- IC50 [1]: 55.4 µM
- IC50 (HepG2): 56.8 µM
- IC50 (HCT-116 [2]): 16.7 µM
- IC50 (HUVEC): > 100 µM
- IC50 (CNE): 49.2 µM
- IC50 (HeLa): 64.8 µM

Structure (SMILES): CCOP(=O)(OCC)C(NC(=O)c1cc(O)c2c(c1)C(=O)c1cccc(O)c1C2=O)c1ccccc1Br (stereo not drawn)
- IC50 [1]: 85.5 µM
- IC50 (HepG2): 88.3 µM
- IC50 (HCT-116 [2]): 48.9 µM
- IC50 (HUVEC): > 100 µM
- IC50 (CNE): 55.7 µM
- IC50 (HeLa): 79.6 µM

Structure (SMILES): CCOP(=O)(OCC)C(NC(=O)c1cc(O)c2c(c1)C(=O)c1cccc(O)c1C2=O)c1cccc(Br)c1 (stereo not drawn)
- IC50 [1]: 75.4 µM
- IC50 (HepG2): 62.4 µM
- IC50 (HCT-116 [2]): 40.2 µM
- IC50 (HUVEC): > 100 µM
- IC50 (CNE): 40.1 µM
- IC50 (HeLa): 78.2 µM

Structure (SMILES): CCOP(=O)(OCC)C(NC(=O)c1cc(O)c2c(c1)C(=O)c1cccc(O)c1C2=O)c1cccc(C)c1 (stereo not drawn)
- IC50 [1]: 67.7 µM
- IC50 (HepG2): 62.2 µM
- IC50 (HCT-116 [2]): 45.4 µM
- IC50 (HUVEC): > 100 µM
- IC50 (CNE): 74.2 µM
- IC50 (HeLa): 73.3 µM

- ΔTm (DNA): 2 °C
Structure (SMILES): O=C(O)c1cc(O)c2c(c1)C(=O)c1cccc(O)c1C2=O [RHEIN]
- IC50 (HCT-116 [3]): 135 µM
- IC50 [4]: 62.5 µM
- IC50 (HUVEC): 89.7 µM

Structure (SMILES): CCOP(=O)(OCC)C(NC(=O)c1cc(O)c2c(c1)C(=O)c1cccc(O)c1C2=O)c1ccccc1F (stereo not drawn)
- IC50 [1]: 79.9 µM
- IC50 (HepG2): 71.2 µM
- IC50 (HCT-116 [2]): 36.6 µM
- IC50 (HUVEC): > 100 µM
- IC50 (CNE): 67.6 µM
- IC50 (HeLa): 94.2 µM

Reference: ChEMBL document CHEMBL3102831 (Bioorg Med Chem Lett, 2014)
